Measurements reported in patent US20250019385A1, “SPIROCYCLIC ANNULATED 2-AMINO-3-CYANO THIOPHENES AND DERIVATIVES FOR THE TREATMENT OF CANCER” (Boehringer Ingelheim International GmbH, priority 2023, published 2025).
Values after ≈ are worked out from the molar mass of the structure shown.

Target: KRAS (G12D)::SOS1 protein-protein interaction (Homo sapiens (Human), UniProt P01116, G12D)
Assay: KRAS::SOS1 AlphaScreen binding assay (KRAS G12D)
Conditions: GDP
From the text: (§1) This assay can be used to examine the potency with which compounds according to the invention binding to (mutated) KRAS inhibit the protein-protein interaction between SOS1 and (mutated) KRAS e.g. KRAS G12C, KRAS G12D. […] Low IC50 values in this assay setting are indicative of strong inhibition of protein-protein interaction between SOS1 and KRAS:
(§2) These assays measure the inhibitory effect of compounds on KRAS mutant protein-protein interactions using the Alpha Screen technology by Perkin Elmer.
(§3) The following (mutant) enzyme forms of KRAS and interacting proteins are used in these assays at the given concentrations:
KRAS (G12D) 1-169, N-terminal 6His-tag, C-terminal avi-tag (Xtal BioStructures, Inc.); final assay concentration 10 nM and SOS1 564-1049, N-terminal 229 GST-tag, TEV cleavage site (Viva Biotech Ltd); final assay concentration 5 nM;
(§4) Test compounds dissolved in DMSO are dispensed onto assay plates (Proxiplate 384 PLUS, white, PerkinElmer; 6008289) using an Access Labcyte Workstation with the Labcyte Echo 55x. For the chosen highest assay concentration of 100 μM, 150 nL of compound solution are transferred from a 10 mM DMSO compound stock solution. A series of eleven fivefold dilutions per compound are transferred to the assay plate, compound dilutions are tested in duplicates. DMSO are added as backfill to a total volume of 150 nL.
(§5) The assays run on a fully automated robotic system in a darkened room below 100 Lux. To 150 nl of compound dilution 10 μl of a mix including KRAS mutant protein, SOS1 (final assay concentrations see above) and GDP nucleotide (Sigma G7127; final assay concentration 10 μM) in assay buffer (1×PBS, 0.1% BSA, 0.05% Tween 20) are added into columns 1-24.
(§6) After 30 minutes incubation time 5 μl of Alpha Screen bead mix in assay buffer are added into columns 1-23. Bead mix consists of AlphaLISA Glutathione Acceptor Beads (PerkinElmer, Cat No AL109) and AlphaScreen Streptavidin Donor Beads (PerkinElmer Cat No 6760002) in assay buffer at a final assay concentration of 10 μg/mL each.
(§7) Plates are kept at room temperature in a darkened incubator. After an additional 60 minutes incubation time the signal is measured in a PerkinElmer Envision HTS Multilabel Reader using the AlphaScreen specs from PerkinElmer.
(§8) Each plate contains up to 16 wells of a negative control depending on the dilution procedure (platewise or serial) (DMSO instead of test compound; with KRAS mutant::SOS1 GOP mix and bead mix; column 23) and 16 wells of a positive control (DMSO instead of test compound; with KRAS mutant::SOS1 GOP mix w/o bead mix; column 24).
(§9) As internal control known inhibitors of KRAS mutant::SOS1 interaction can be measured on each compound plate.
(§10) IC50 values are calculated and analyzed with Boehringer Ingelheim's MEGALAB C50 application using a 4 parametric logistic model.
(§11) Tables of example compounds disclosed herein contain IC50 values determined using the above assays (see Table 43).

Chain of KRAS (G12D)::SOS1 protein-protein interaction (P01116 other isoform, or with tags, fused parts or gaps G12D): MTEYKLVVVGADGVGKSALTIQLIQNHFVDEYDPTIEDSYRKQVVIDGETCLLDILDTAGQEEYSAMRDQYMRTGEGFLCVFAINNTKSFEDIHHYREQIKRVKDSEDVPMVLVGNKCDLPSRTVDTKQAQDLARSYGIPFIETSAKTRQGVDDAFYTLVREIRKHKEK

Question: Which IC50 does the source give for `CO[C@H]1CCN(C)[C@@H]1[C@H](C)Oc1nc(-c2onc3c2CCC[C@@]32CCCc3sc(N)c(C#N)c32)nc2c1CN(C1COC1)C[C@]21CCOC1` [I-57] here?
Answer: 1 nM

Question: Which IC50 does the source give for `C[C@H](Oc1nc(-c2onc3c2CCC[C@@]32CCCc3sc(N)c(C#N)c32)nc2c1COC[C@]21CCOC1)[C@@H]1CCCN1C` [I-54] here?
Answer: 1 nM

Question: For `Cc1nn([C@@H]2CCOC2)c2nc(-c3onc4c3CCC[C@@]43CCCc4sc(N)c(C#N)c43)nc(O[C@@H](C)[C@@H]3CCCN3C)c12` [I-42], which IC50 is on record?
Answer: 3 nM

Question: For `CCn1c(=O)n([C@@H]2CCCOC2)c2nc(-c3onc4c3CCC[C@@]43CCCc4sc(N)c(C#N)c43)nc(O[C@@H](C)C34CCCN3CCC4)c21` [I-36], which IC50 is on record?
Answer: 2 nM

Question: With `CO[C@@H]1C[C@@H]([C@H](C)Oc2nc(-c3onc4c3CCC[C@@]43CCCc4sc(N)c(C#N)c43)nc3c2CN(C2COC2)C[C@]32CCOC2)N(C)C1` [I-58] as the compound, how does the IC50 read?
Answer: 1 nM

Question: For `C[C@H](Oc1nc(-c2onc3c2CCC[C@@]32CCCc3sc(N)c(C#N)c32)nc2c1CN(C1COC1)C[C@]21CCOC1)[C@@H]1CC[C@H](C)N1C` [I-55], which IC50 is on record?
Answer: 1 nM

System: not listed separately
Assay: Solubility measurement (DMSO solution precipitation method)
Assay type: physicochemical
Conditions: aqueous buffer, kinetic from dmso stock, McIlvaine buffer pH 4.5, 24 h, read-out: solubility pH 4.5
Experimental: A 10 mM DMSO stock solution of a test compound is used to determine its aq. solubility. The DMSO solution is diluted with an aq. medium (McIlvaine buffer with pH=4.5 or 6.8) to a final concentration of 250 μM. After 24 h of shaking at ambient temperature a potentially formed precipitate is removed by filtration. The concentration of the test compound in the filtrate is determined by LC-UV methods by calibrating the signal to the signal of a reference solution with complete dissolution of the test compound in acetonitrile/water (1:1) with known concentration.

Question: With `CO[C@H]1CCN(C)[C@@H]1[C@H](C)Oc1nc(-c2onc3c2CCC[C@@]32CCCc3sc(N)c(C#N)c32)nc2c1CN(C1COC1)C[C@]21CCOC1` [I-57] as the compound, how does the solubility at 24 h read?
Answer: > 167 µg/mL

Question: For `C[C@H](Oc1nc(-c2onc3c2CCC[C@@]32CCCc3sc(N)c(C#N)c32)nc2c1COC[C@]21CCOC1)[C@@H]1CCCN1C` [I-54], which solubility at 24 h is on record?
Answer: > 145 µg/mL

Question: With `Cc1nn([C@@H]2CCOC2)c2nc(-c3onc4c3CCC[C@@]43CCCc4sc(N)c(C#N)c43)nc(O[C@@H](C)[C@@H]3CCCN3C)c12` [I-42] as the compound, how does the solubility at 24 h read?
Answer: > 145 µg/mL

Question: For `CCn1c(=O)n([C@@H]2CCCOC2)c2nc(-c3onc4c3CCC[C@@]43CCCc4sc(N)c(C#N)c43)nc(O[C@@H](C)C34CCCN3CCC4)c21` [I-36], which solubility at 24 h is on record?
Answer: 135 µg/mL (≈ 197 µM)

Question: With `CO[C@@H]1C[C@@H]([C@H](C)Oc2nc(-c3onc4c3CCC[C@@]43CCCc4sc(N)c(C#N)c43)nc3c2CN(C2COC2)C[C@]32CCOC2)N(C)C1` [I-58] as the compound, how does the solubility at 24 h read?
Answer: > 167 µg/mL

Question: Which solubility at 24 h does the source give for `C[C@H](Oc1nc(-c2onc3c2CCC[C@@]32CCCc3sc(N)c(C#N)c32)nc2c1CN(C1COC1)C[C@]21CCOC1)[C@@H]1CC[C@H](C)N1C` [I-55] here?
Answer: > 159 µg/mL

Same assay, conditions: aqueous buffer, kinetic from dmso stock, McIlvaine buffer pH 6.8, 24 h, read-out: solubility pH 6.8

Question: With `CO[C@H]1CCN(C)[C@@H]1[C@H](C)Oc1nc(-c2onc3c2CCC[C@@]32CCCc3sc(N)c(C#N)c32)nc2c1CN(C1COC1)C[C@]21CCOC1` [I-57] as the compound, how does the solubility at 24 h read?
Answer: 72 µg/mL (≈ 105 µM)

Question: With `C[C@H](Oc1nc(-c2onc3c2CCC[C@@]32CCCc3sc(N)c(C#N)c32)nc2c1COC[C@]21CCOC1)[C@@H]1CCCN1C` [I-54] as the compound, how does the solubility at 24 h read?
Answer: > 142 µg/mL

Question: With `Cc1nn([C@@H]2CCOC2)c2nc(-c3onc4c3CCC[C@@]43CCCc4sc(N)c(C#N)c43)nc(O[C@@H](C)[C@@H]3CCCN3C)c12` [I-42] as the compound, how does the solubility at 24 h read?
Answer: 112 µg/mL (≈ 182 µM)

Question: Which solubility at 24 h does the source give for `CCn1c(=O)n([C@@H]2CCCOC2)c2nc(-c3onc4c3CCC[C@@]43CCCc4sc(N)c(C#N)c43)nc(O[C@@H](C)C34CCCN3CCC4)c21` [I-36] here?
Answer: 94 µg/mL (≈ 137 µM)

Question: With `CO[C@@H]1C[C@@H]([C@H](C)Oc2nc(-c3onc4c3CCC[C@@]43CCCc4sc(N)c(C#N)c43)nc3c2CN(C2COC2)C[C@]32CCOC2)N(C)C1` [I-58] as the compound, how does the solubility at 24 h read?
Answer: 122 µg/mL (≈ 177 µM)

Question: Which solubility at 24 h does the source give for `C[C@H](Oc1nc(-c2onc3c2CCC[C@@]32CCCc3sc(N)c(C#N)c32)nc2c1CN(C1COC1)C[C@]21CCOC1)[C@@H]1CC[C@H](C)N1C` [I-55] here?
Answer: > 137 µg/mL

Target: KRAS (G12C)::SOS1 protein-protein interaction (Homo sapiens (Human), UniProt P01116, C118S/C51S/C80L/G12C)
Sequence (P01116 other isoform, or with tags, fused parts or gaps G12C/C51S/C80L/C118S): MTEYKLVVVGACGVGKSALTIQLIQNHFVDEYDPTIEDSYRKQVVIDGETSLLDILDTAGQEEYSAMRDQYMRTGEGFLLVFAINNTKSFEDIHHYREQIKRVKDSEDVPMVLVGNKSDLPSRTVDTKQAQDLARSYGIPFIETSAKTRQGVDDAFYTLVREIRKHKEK
Assay: KRAS::SOS1 AlphaScreen binding assay (KRAS G12C)
Conditions: GDP
From the text: as §1, §2, §3
KRAS (G12C) 1-169, N-terminal 6His-tag for purification, cleaved off, C-terminal avi-tag, biotinylated, mutations: C51S, C80L, C118S (in house); final assay concentration 7.5 nM and SOS1 564-1049, N-terminal 229 GST-tag, TEV cleavage site (Viva Biotech Ltd); final assay concentration 5 nM;
as §4, §5, §6, §7, §8, §9, §10, §11

Question: For `C[C@H](Oc1nc(-c2onc3c2CCC[C@@]32CCCc3sc(N)c(C#N)c32)nc2c1COC[C@]21CCOC1)[C@@H]1CCCN1C` [I-54], which IC50 is on record?
Answer: 2 nM

Question: With `Cc1nn([C@@H]2CCOC2)c2nc(-c3onc4c3CCC[C@@]43CCCc4sc(N)c(C#N)c43)nc(O[C@@H](C)[C@@H]3CCCN3C)c12` [I-42] as the compound, how does the IC50 read?
Answer: 2 nM

Question: For `CCn1c(=O)n([C@@H]2CCCOC2)c2nc(-c3onc4c3CCC[C@@]43CCCc4sc(N)c(C#N)c43)nc(O[C@@H](C)C34CCCN3CCC4)c21` [I-36], which IC50 is on record?
Answer: 2 nM

System: MKN1 cells
Assay: MKN1 CTG proliferation assay (120 h) (gastric cancer, wt amplified)
Assay type: cell-based
Conditions: Homo sapiens, MKN-1
Experimental: MKN1 cells (JCRB0252) are dispensed into black 384-well plates, flat and clear bottom (Greiner, PNr. 781091) at a density of 200 cells per well in 60 μl RPMI-1640 ATCC-Formulation (Gibco #A10491)+10% FCS (fetal calf serum, HyClone, SH30084.03). Cells are incubated overnight at 37° C. in a humidified tissue culture incubator at 5% CO2. Compounds (10 mM stock in DMSO) are added at logarithmic dose series using the ECHO acoustic liquid handler system (Beckman Coulter), normalizing for added DMSO and including DMSO controls. All compound treatments are performed in technical duplicates. For the TO time point measurement, untreated cells are analyzed at the time of compound addition. Plates are incubated for 120 h, and cell viability is measured using CellTiter-Glo luminescent cell viability reagent (Promega product code G7570). Viability (stated as percent of control) is defined as relative luminescence units RLU of each well divided by the RLU of cells in DMSO controls. IC50 values are determined from viability measurements by non-linear regression using a four-parameter model.
IC50 values of representative compounds according to the invention measured with these assays in the indicated cell lines are presented in Table 46.

Question: With `CO[C@H]1CCN(C)[C@@H]1[C@H](C)Oc1nc(-c2onc3c2CCC[C@@]32CCCc3sc(N)c(C#N)c32)nc2c1CN(C1COC1)C[C@]21CCOC1` [I-57] as the compound, how does the IC50 read?
Answer: 1 nM

Question: With `C[C@H](Oc1nc(-c2onc3c2CCC[C@@]32CCCc3sc(N)c(C#N)c32)nc2c1COC[C@]21CCOC1)[C@@H]1CCCN1C` [I-54] as the compound, how does the IC50 read?
Answer: 7 nM

Question: Which IC50 does the source give for `Cc1nn([C@@H]2CCOC2)c2nc(-c3onc4c3CCC[C@@]43CCCc4sc(N)c(C#N)c43)nc(O[C@@H](C)[C@@H]3CCCN3C)c12` [I-42] here?
Answer: 81 nM

Question: Which IC50 does the source give for `CCn1c(=O)n([C@@H]2CCCOC2)c2nc(-c3onc4c3CCC[C@@]43CCCc4sc(N)c(C#N)c43)nc(O[C@@H](C)C34CCCN3CCC4)c21` [I-36] here?
Answer: 239 nM

Question: Which IC50 does the source give for `CO[C@@H]1C[C@@H]([C@H](C)Oc2nc(-c3onc4c3CCC[C@@]43CCCc4sc(N)c(C#N)c43)nc3c2CN(C2COC2)C[C@]32CCOC2)N(C)C1` [I-58] here?
Answer: 21 nM

Question: For `C[C@H](Oc1nc(-c2onc3c2CCC[C@@]32CCCc3sc(N)c(C#N)c32)nc2c1CN(C1COC1)C[C@]21CCOC1)[C@@H]1CC[C@H](C)N1C` [I-55], which IC50 is on record?
Answer: 18 nM
